Results on 24 compounds are retold here after patent publication US8765730B2 (Hoffmann-La Roche Inc, priority 2010, dated 2014).

As usually defined, the EC50 is the concentration that produces a half-maximal response.

In the first test the target is T1, human GPBAR1 receptor (Homo sapiens, UniProt Q8TDU6).
T1 construct: expressed in transfected cells
T1 sequence (Q8TDU6 1-330): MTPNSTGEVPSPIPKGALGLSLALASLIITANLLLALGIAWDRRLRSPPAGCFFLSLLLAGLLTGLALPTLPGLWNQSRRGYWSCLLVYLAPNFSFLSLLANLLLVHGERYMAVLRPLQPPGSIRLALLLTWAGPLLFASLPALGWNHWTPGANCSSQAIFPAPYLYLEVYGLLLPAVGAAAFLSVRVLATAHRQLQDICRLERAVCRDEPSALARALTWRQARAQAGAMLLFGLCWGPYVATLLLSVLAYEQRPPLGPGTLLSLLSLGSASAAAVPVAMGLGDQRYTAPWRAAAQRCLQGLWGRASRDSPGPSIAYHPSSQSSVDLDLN
The experiment in a line: functional cAMP assay in CHO-dhfr(minus) cells expressing human GPBAR1 receptors. It counts as cell-based. The settings on record: functional cAMP assay, 30 min at 30° C., read-out: human EC50. In a few lines:
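Agonist cAMP read-out: stable GPBAR1 CHO-dhfr− clone, 30 min compound exposure at 30° C following 30 min IBMX (1 mM) preincubation in Krebs Ringer bicarbonate. Time-resolved energy-transfer detection gives EC50; parental CHO cells serve as counter-screen.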
Background: Changes in cAMP serve as a functional read-out for many G protein-coupled receptors.
Regarding `Cc1cc(/C(C[C@H](c2ccc(C(=O)NCCO)cc2)c2ccccc2C)=N/O)ccn1` [Example 273, N-(2-Hydroxy-ethyl)-4-[(R)-3-[(E)-hydroxyimino]-3-(2-methyl-pyridin-4-yl)-1-o-tolyl-propyl]-benzamide], the EC50 amounted to 31 nM.

The same test, now with this note: human EC50, functional cAMP assay, 30 min at 30° C.
In the case of `Cc1ccccc1C(C/C(=N\O)c1ccncc1)c1ccc(-c2cncnc2)cc1` (single isomer, unassigned; (-)) [Example 36, (−)-(E)-1-pyridin-4-yl-3-(4-pyrimidin-5-yl-phenyl)-3-o-tolyl-propan-1-one oxime], it took 11 nM to reach a half-maximal effect (EC50).

`Cc1ccccc1C(C/C(=N\O)c1ccc(=O)n(C)c1)c1ccc(C(=O)NC(CO)CO)cc1` (stereo not drawn) [Example 304, (E)-N-(1,3-Dihydroxypropan-2-yl)-4-(3-(hydroxyimino)-3-(1-methyl-6-oxo-1,6-dihydropyridin-3-yl)-1-o-tolylpropyl)benzamide]: a half-maximal effect (EC50) was put at 506 nM.

`Cc1ncsc1C(C/C(=N\O)c1ccc(=O)n(C)c1)c1ccc(Br)cc1` (stereo not drawn) [Example 330, (E)-5-(3-(4-Bromophenyl)-1-(hydroxyimino)-3-(4-methylthiazol-5-yl)propyl)-1-methylpyridin-2(1H)-one] showed an EC50 of 92 nM.

The compound `Cc1cc(/C(C[C@H](c2ccc(C(=O)NC[C@H](C)O)cc2)c2ccccc2C)=N/O)ccn1` [Example 275, 4-[(R)-3-[(E)-Hydroxyimino]-3-(2-methyl-pyridin-4-yl)-1-o-tolyl-propyl]-N—((S)-2-hydroxy-propyl)-benzamide] registered an EC50 of 26 nM.

Turning to `Cc1cc(/C(C[C@H](c2ccc(N3CCC(C(N)=O)CC3)cc2)c2ccccc2C)=N/O)ccn1` [Example 367, (R,E)-1-(4-(3-(Hydroxyimino)-3-(2-methylpyridin-4-yl)-1-o-tolylpropyl)phenyl)piperidine-4-carboxamide], a half-maximal effect (EC50) was put at 1 nM.

Compound `Cn1cc(/C(CC(c2cccc(S(C)(=O)=O)c2)c2ccc(Cl)cc2F)=N/O)ccc1=O` (stereo not drawn) [Example 315, (E)-5-(3-(4-Chloro-2-fluorophenyl)-1-(hydroxyimino)-3-(3-(methylsulfonyl)phenyl)propyl)-1-methylpyridin-2(1H)-one] registered an EC50 of 647 nM.

Consider `Cn1cc(/C(CC(c2cccc(C(=O)NCCO)c2)c2ccc(Cl)cc2F)=N/O)ccc1=O` (stereo not drawn) [Example 320, (E)-3-(1-(4-Chloro-2-fluorophenyl)-3-(hydroxyimino)-3-(1-methyl-6-oxo-1,6-dihydro-pyridin-3-yl)propyl)-N-(2-hydroxyethyl)benzamide], for which the EC50 worked out at 3370 nM.

Turning to `Cc1ccccc1C(C/C(=N\O)c1ccc(=O)n(C)c1)c1ccc(Oc2cccc(C(=O)O)c2)cc1F` (stereo not drawn) [Example 235, 3-{3-Fluoro-4-[3-[(E)-hydroxyimino]-3-(1-methyl-6-oxo-1,6-dihydro-pyridin-3-yl)-1-o-tolyl-propyl]-phenoxy}-benzoic acid], the EC50 was determined as 43 nM.

The compound `Cc1cc(/C(C[C@H](c2ccc(N3CCC(O)CC3)cc2)c2ccccc2C)=N/O)ccn1` [Example 145, (E,R)-3-(4-(4-Hydroxypiperidin-1-yl)phenyl)-1-(2-methylpyridin-4-yl)-3-o-tolylpropan-1-one oxime] came in with an EC50 of 1 nM.

On to `Cc1cc(C(CC(c2cccc(CCCO)c2)c2ccccc2C)=NO)ccn1` (racemic) [Example 107, 3-[3-(3-Hydroxy-propyl)-phenyl]-1-(2-methyl-pyridin-4-yl)-3-o-tolyl-propan-1-one oxime], for which a half-maximal effect (EC50) was put at 153 nM.

In the case of `Cc1ccccc1[C@@H](C/C(=N\O)c1ccc(=O)n(C)c1)c1ccc([C@H]2CC[C@H](C(=O)O)CC2)cc1` [Example 488, Trans-4-(4-((S,E)-3-(Hydroxyimino)-3-(1-methyl-6-oxo-1,6-dihydropyridin-3-yl)-1-o-tolylpropyl)phenyl)cyclohexanecarboxylic acid], the EC50 was determined as 612 nM.

`Cc1cnc(F)cc1C(CC(c1ccccc1)c1ccccc1)=NO` (racemic) [Example 59, 1-(2-Fluoro-5-methyl-pyridin-4-yl)-3,3-diphenyl-propan-1-one oxime] showed an EC50 of 17 nM.

For the compound `Cc1cc(/C(C[C@H](c2ccc(S(C)(=O)=O)cc2)c2ccccc2C)=N/O)ccn1` [Example 358, (R)-3-(4-Methanesulfonyl-phenyl)-1-(2-methyl-pyridin-4-yl)-3-o-tolyl-propan-1-one oxime], it took 14 nM to reach a half-maximal effect (EC50).

On to `Cc1cc(/C(C[C@H](c2ccc(C3CCC(C(=O)O)CC3)cc2)c2ccccc2C)=N/O)ccn1` (stereo partly drawn) [Example 490, (R,E)-4-(4-(3-(Hydroxyimino)-3-(2-methylpyridin-4-yl)-1-o-tolylpropyl)phenyl)-cyclohexanecarboxylic acid], for which the EC50 stood at 24 nM.

For `Cc1cc(C(CC(c2ccc(Br)cc2)c2ccccc2C)=NO)cc(F)n1` (racemic) [Example 126, 3-(4-Bromo-phenyl)-1-(2-fluoro-6-methyl-pyridin-4-yl)-3-o-tolyl-propan-1-one oxime], the EC50 was determined as 61 nM.

Turning to `Cc1cc(/C(C[C@H](c2ccc(-c3cncnc3)cc2)c2ccccc2C)=N/O)ccn1` [Example 143, (E,R)-1-(2-Methyl-pyridin-4-yl)-3-(4-pyrimidin-5-yl-phenyl)-3-o-tolyl-propan-1-one oxime], the EC50 was 1 nM.

With `Cc1cc(C(=NO)C(Cc2ccc(Br)cc2)c2ccccc2)cc(C)n1` (racemic) [Example 45, 3-(4-Bromo-phenyl)-1-(2,6-dimethyl-pyridin-4-yl)-2-phenyl-propan-1-one oxime], the midpoint of the response, the EC50, lay at 1160 nM.

`Cc1ccccc1C(CC(=NO)c1ccncc1)c1cccc(Br)c1` (racemic) [Example 11, 3-(3-Bromo-phenyl)-1-pyridin-4-yl-3-o-tolyl-propan-1-one oxime] displayed an EC50 of 40 nM.

Take `Cn1cc(/C(CC(c2ccc(Br)cc2)c2ccccc2F)=N/O)ccc1=O` (stereo not drawn) [Example 243, (E)-5-(3-(4-Bromophenyl)-3-(2-fluorophenyl)-1-(hydroxyimino)propyl)-1-methylpyridin-2(1H)-one]: the EC50 is 20 nM.

Turning to `Cc1cc(/C(CC(c2ccc(C(=O)NC3CCCCC3)cc2)c2ccc(F)cc2F)=N/O)ccn1` (stereo not drawn) [Example 436, N-Cyclohexyl-4-[1-(2,4-difluoro-phenyl)-3-[(E)-hydroxyimino]-3-(2-methyl-pyridin-4-yl)-propyl]-benzamide], the EC50 is 62 nM.

For `Cc1ccccc1C(C/C(=N\O)c1ccc(=O)n(C)c1)c1ccc(C(=O)NC[C@@H](O)CO)cc1` (stereo partly drawn) [Example 307, N—((R)-2,3-Dihydroxypropyl)-4-((E)-3-(hydroxyimino)-3-(1-methyl-6-oxo-1,6-dihydro-pyridin-3-yl)-1-o-tolylpropyl)benzamide], a half-maximal effect (EC50) was put at 116 nM.

With `Cc1cc(/C(CC(c2ccccc2)c2ccccn2)=N/O)cc(C)n1` (stereo not drawn) [Example 68, (E)-1-(2,6-Dimethyl-pyridin-4-yl)-3-phenyl-3-pyridin-2-yl-propan-1-one oxime], it took 341 nM to reach a half-maximal effect (EC50).

`CCOCCn1cc(/C(CC(c2ccc(S(C)(=O)=O)cc2)c2ccc(Cl)cc2C)=N/O)ccc1=O` (stereo not drawn) [Example 340, (E)-5-(3-(4-Chloro-2-methylphenyl)-1-(hydroxyimino)-3-(4-(methylsulfonyl)phenyl)-propyl)-1-(2-ethoxyethyl)pyridin-2(1H)-one]: the EC50 worked out at 221 nM.
